Test results published in patent EP4813993A1, “COMPOUND, PREPARATION METHOD THEREFOR, AND USE THEREOF” (Sichuan Kelun Pharmaceutical Research Institute Co., Ltd., priority 2023, dated 2025).

Target: T1, Nav1.8 channels (Homo sapiens, UniProt Q9Y5Y9)
T1 construct: expressed in transfected cells
Assay: Manual patch-clamp, current of stably overexpressed Nav1.8 channels (resting state voltage program)
Type: cell-based
Details: read-out: Inhibition rate %; for inhibition at 0.01 µM: concentration of 10 nM; for inhibition at 0.001 µM: concentration of 1 nM
Method: Experimental Example 1: Effects of test substances on current of stably overexpressed Nav1.8 channels monitored via manual patch-clamp technique
Test compounds were dissolved in dimethyl sulfoxide (DMSO).
The extracellular fluid was as follows: 140 mM NaCl, 3.5 mM KCl, 1 mM MgCl2•6H2O, 2 mM CaCl2•2H2O, 10 mM D-Glucose, 10 mM HEPES, 1.25 mM NaH2PO4•2H2O; the pH was adjusted to 7.4 with NaOH. The intracellular fluid was as follows: 50 mM CsCl, 10 mM NaCl, 10 mM HEPES, 60 mM CsF, 20 mM EGTA; the pH was adjusted to 7.2 with CsOH.
2. Experimental materials and instruments
• 1) patch-clamp amplifier: EPC 10 (HEKA) • 2) micromanipulator: MP225 (Sutter Instrument) • 3) inverted microscope: MF53 (Mshot) • 4) micropipette puller: P97 (Sutter Instrument) • 5) capillary glass tube: BF150-86-10 (Sutter Instrument)
3. Experimental procedures
• 1) After the compounds were prepared into solutions with specified concentrations, the solutions were sequentially added to the pipeline of the drug delivery system and labeled. • 2) The cell climbing coverslip was placed in the recording chamber, the appropriate cells were selected under the inverted microscope, and the position of the drug delivery tip was adjusted. • 3) A capillary glass tube was pulled into a suitable recording electrode using the micropipette puller, and then the electrode filled with the intracellular fluid was mounted in the microelectrode holder. The micromanipulator was adjusted under the inverted microscope to allow the recording electrode to contact the cell, and negative pressure was applied to the electrode to form a high-resistance seal. At this time, fast capacitance compensation was performed, and then the application of negative pressure was continued to break the cell membrane, forming a whole-cell recording mode. Finally, slow capacitance compensation was performed, and related parameters were recorded. • 4) After the cell current stabilized, administration was started. Each concentration of the drug was applied for five minutes or until the current stabilized before proceeding to monitor the next concentration. The drug solutions were administered via gravity-fed delivery, flowing through the recording chamber to act on the cells in an ascending order of concentration (from low to high). A peristaltic pump was employed for solution exchange in the recording process.
4 Test voltage program (resting state) and results
After the formation of the whole-cell seal, the cell voltage was clamped at -120 mV, followed by depolarization to 0 mV using a square-wave pulse with a duration of 50 ms to elicit Nav1.8 currents. This procedure was repeated every 20 s to monitor the maximum current induced by the square wave. After the current stabilized, the test compounds were administered. Once the response stabilized, the intensity of the current block was calculated.

T1 sequence (Q9Y5Y9 whole entry): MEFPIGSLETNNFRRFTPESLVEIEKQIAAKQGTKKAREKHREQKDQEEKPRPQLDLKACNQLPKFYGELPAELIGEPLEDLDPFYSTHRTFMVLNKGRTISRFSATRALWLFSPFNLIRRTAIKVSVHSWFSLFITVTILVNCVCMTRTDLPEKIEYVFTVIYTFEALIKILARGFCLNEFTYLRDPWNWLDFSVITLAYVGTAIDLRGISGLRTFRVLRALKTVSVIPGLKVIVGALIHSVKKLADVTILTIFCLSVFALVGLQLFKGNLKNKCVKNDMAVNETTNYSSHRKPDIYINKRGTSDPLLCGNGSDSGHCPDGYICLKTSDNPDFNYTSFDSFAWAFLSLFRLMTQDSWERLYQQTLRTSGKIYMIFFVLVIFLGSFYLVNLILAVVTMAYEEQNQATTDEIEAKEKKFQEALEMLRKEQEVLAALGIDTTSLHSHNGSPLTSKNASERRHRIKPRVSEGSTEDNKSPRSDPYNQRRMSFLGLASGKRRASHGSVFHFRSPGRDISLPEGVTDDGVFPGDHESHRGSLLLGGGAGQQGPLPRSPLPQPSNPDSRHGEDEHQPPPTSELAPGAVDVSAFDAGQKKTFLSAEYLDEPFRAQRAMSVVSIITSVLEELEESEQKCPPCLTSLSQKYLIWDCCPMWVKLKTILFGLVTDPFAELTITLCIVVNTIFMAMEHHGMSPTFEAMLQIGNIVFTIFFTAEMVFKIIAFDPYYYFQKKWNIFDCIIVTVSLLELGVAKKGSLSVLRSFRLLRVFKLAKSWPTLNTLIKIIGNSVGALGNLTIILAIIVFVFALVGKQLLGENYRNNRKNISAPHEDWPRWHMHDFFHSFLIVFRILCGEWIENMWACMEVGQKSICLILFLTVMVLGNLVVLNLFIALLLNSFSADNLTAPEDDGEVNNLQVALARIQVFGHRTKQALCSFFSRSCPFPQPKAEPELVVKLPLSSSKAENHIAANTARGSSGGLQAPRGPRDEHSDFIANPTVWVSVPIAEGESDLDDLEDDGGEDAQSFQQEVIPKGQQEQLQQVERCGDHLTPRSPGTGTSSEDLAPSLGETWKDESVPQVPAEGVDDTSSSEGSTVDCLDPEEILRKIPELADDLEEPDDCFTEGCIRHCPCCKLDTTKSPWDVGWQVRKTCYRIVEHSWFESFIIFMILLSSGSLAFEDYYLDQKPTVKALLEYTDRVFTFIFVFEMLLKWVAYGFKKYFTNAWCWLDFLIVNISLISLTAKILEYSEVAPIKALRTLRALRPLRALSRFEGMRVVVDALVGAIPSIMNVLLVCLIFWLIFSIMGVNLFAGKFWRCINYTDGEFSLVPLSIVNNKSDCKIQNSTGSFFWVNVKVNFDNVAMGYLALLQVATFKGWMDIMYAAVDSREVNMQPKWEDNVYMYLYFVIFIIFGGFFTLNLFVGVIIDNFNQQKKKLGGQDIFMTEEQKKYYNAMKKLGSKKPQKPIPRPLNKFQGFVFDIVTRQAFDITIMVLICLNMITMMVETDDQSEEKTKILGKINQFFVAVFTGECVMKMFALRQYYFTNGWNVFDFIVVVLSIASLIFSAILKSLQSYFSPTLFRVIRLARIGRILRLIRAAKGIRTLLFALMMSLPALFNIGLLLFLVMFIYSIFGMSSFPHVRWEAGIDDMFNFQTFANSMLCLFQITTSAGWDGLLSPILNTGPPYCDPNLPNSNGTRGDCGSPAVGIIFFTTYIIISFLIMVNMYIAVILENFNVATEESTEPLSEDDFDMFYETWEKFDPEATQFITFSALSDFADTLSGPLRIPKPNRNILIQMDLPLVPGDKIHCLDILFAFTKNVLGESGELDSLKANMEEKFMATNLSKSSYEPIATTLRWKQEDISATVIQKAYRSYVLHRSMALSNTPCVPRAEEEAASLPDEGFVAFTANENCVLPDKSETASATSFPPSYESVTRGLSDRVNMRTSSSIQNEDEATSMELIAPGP

SMILES | inhibition at 0.01 µM | inhibition at 0.001 µM
COc1c([C@@H]2C[C@](C)(C(F)(F)F)S[C@H]2C(=O)Nc2ccnc(OCC(O)CO)c2)ccc(F)c1F (stereo partly drawn) [Compound 191-A, (2R,3S,5R)-3-(3,4-difluoro-2-methoxyphenyl)-N-(2-(2,3-dihydroxypropoxy)pyridin-4-yl)-5-methyl-5-(trifluoromethyl)tetrahydrothiophene-2-carboxamide] | 88.8% | –
COc1c(C2CC(C)(C(F)(F)F)SC2C(=O)Nc2ccnc(S(C)(=O)=O)c2)ccc(F)c1F (stereo not drawn) [Compound 192, (4-(3-(3,4-difluoro-2-methoxyphenyl)-5-methyl-5-(trifluoromethyl)tetrahydrothiophene-2-carboxamido)-2-methylsulfonyl)pyridine] | 96.4% | –
COc1c(C2CC(C)(C(F)(F)F)SC2C(=O)Nc2conc2C)ccc(F)c1F (stereo not drawn) [Compound 197, 3-(3,4-difluoro-2-methoxyphenyl)-5-methyl-N-(3-methylisoxazol-4-yl)-5-(trifluoromethyl)tetrahydrothiophene-2-carboxamide] | 91.1% | –
COc1c(C2CC(C)(C(F)(F)F)SC2C(=O)Nc2cn(C(F)F)nc2C)ccc(F)c1F (stereo not drawn) [Compound 199, (4-(3-(3,4-difluoro-2-methoxyphenyl)-5-methyl-5-(trifluoromethyl)tetrahydrothiophene-2-carboxamido)-1-difluoromethyl-3-methyl)pyrazole] | 89.4% | –
COc1c(C2CC(C)(C(F)(F)F)SC2C(=O)Nc2ccc3nnnn3c2)ccc(F)c1F (stereo not drawn) [Compound 202, 3-(3,4-difluoro-2-methoxyphenyl)-5-methyl-N-(tetrazolo[1,5-a]pyridin-6-yl)-5-(trifluoromethyl)tetrahydrothiophene-2-carboxamide] | – | 81%
COc1c(C2CC(C)(C(F)(F)F)SC2C(=O)Nc2ccn3nnnc3c2)ccc(F)c1F (stereo not drawn) [Compound 203, 3-(3,4-difluoro-2-methoxyphenyl)-5-methyl-N-(tetrazolo[1,5-a]pyridin-7-yl)-5-(trifluoromethyl)tetrahydrothiophene-2-carboxamide] | – | 80.4%
COc1c(C2CC(C)(C(F)(F)F)SC2C(=O)Nc2ccc3c(c2)COB3O)ccc(F)c1F (stereo not drawn) [Compound 219, 3-(3,4-difluoro-2-methoxyphenyl)-N-(1-hydroxy-1,3-dihydrobenzo[c][1,2]oxaborol-5-yl)-5-methyl-5-(trifluoromethyl)tetrahydrothiophene-2-carboxamide] | 88% | –
[2H]C1(C(=O)Nc2ccnc(O)c2)SC(C)(C(F)(F)F)CC1c1ccc(F)c(F)c1OC (stereo not drawn) [Compound 222, 3-(3,4-difluoro-2-methoxyphenyl)-N-(2-hydroxypyridin-4-yl)-5-methyl-5-(trifluoromethyl)tetrahydrothiophene-2-d-2-carboxamide] | 97% | –
COc1c(C2CC(C)(C(F)(F)F)SC2C(=O)Nc2cccc(S(C)(=N)=O)c2)ccc(F)c1F (stereo not drawn) [Compound 225, 3-(3,4-difluoro-2-methoxyphenyl)-5-methyl-N-(3-(S-methylsulfonimidoyl)phenyl)-5-(trifluoromethyl)tetrahydrothiophene-2-carboxamide] | – | 91.2%
COc1c([C@@H]2C[C@](C)(C(F)(F)F)S[C@H]2C(=O)Nc2ccc(C(=O)O)c(O)c2)ccc(F)c1F [Compound 226-A, 4-((2R,3S,5R)-3-(3,4-difluoro-2-methoxyphenyl)-5-methyl-5-(trifluoromethyl)tetrahydrothiophene-2-carboxamido)-2-hydroxybenzoic acid] | – | 32.2%
COc1c(C2CC(C)(C(F)(F)F)SC2C(=O)Nc2ccc(F)c(S(C)(=N)=O)c2)ccc(F)c1F (stereo not drawn) [Compound 227, 3-(3,4-difluoro-2-methoxyphenyl)-N-(4-fluoro-3-(S-methylsulfonimidoyl)phenyl)-5-methyl-5-(trifluoromethyl)tetrahydrothiophene-2-carboxamide] | 97.7% | –
COc1c([C@@H]2C[C@](C)(C(F)(F)F)S[C@H]2C(=O)Nc2ccc(B3OC(C)(C)C(C)(C)O3)c(F)c2)ccc(F)c1F [Compound 229-A, (2R,3S,5R)-3-(3,4-difluoro-2-methoxyphenyl)-N-(3-fluoro-4-(4,4,5,5-tetramethyl-1,3,2-dioxaborolan-2-yl)phenyl)-5-methyl-5-(trifluoromethyl)tetrahydrothiophene-2-carboxamide] | – | 48.6%
COc1c([C@@H]2C[C@](C)(C(F)(F)F)S[C@H]2C(=O)Nc2ccc(SC)nc2)ccc(F)c1F [Compound 231-A, (2R,3S,5R)-3-(3,4-difluoro-2-methoxyphenyl)-5-methyl-N-(6-(methylthio)pyridin-3-yl)-5-(trifluoromethyl)tetrahydrothiophene-2-carboxamide] | 83.7% | –
COc1c(C2CC(C)(C(F)(F)F)SC2C(=O)Nc2ccc([S+](C)[O-])nc2)ccc(F)c1F (stereo not drawn) [Compound 232, 3-(3,4-difluoro-2-methoxyphenyl)-5-methyl-N-(6-(methylsulfinyl)pyridin-3-yl)-5-(trifluoromethyl)tetrahydrothiophene-2-carboxamide] | 96.1% | 78.4%
COc1c([C@@H]2C[C@](C)(C(F)(F)F)S[C@H]2C(=O)Nc2ccc([S+](C)[O-])nc2)ccc(F)c1F (stereo partly drawn) [Compound 238-A, (2R,3S,5R)-3-(3,4-difluoro-2-methoxyphenyl)-5-methyl-N-(6-(methylsulfinyl)pyridin-3-yl)-5-(trifluoromethyl)tetrahydrothiophene-2-carboxamide] | – | 85.5%
COc1c([C@@H]2C[C@](C)(C(F)(F)F)S[C@H]2C(=O)Nc2cccc(S(=O)(=O)N(C)C)c2)ccc(F)c1F [Compound 240-A, (2R,3S,5R)-3-(3,4-difluoro-2-methoxyphenyl)-N-(3-(N,N-dimethylsulfamoyl)phenyl)-5-methyl-5-(trifluoromethyl)tetrahydrothiophene-2-carboxamide] | 87.4% | –
CNS(=O)(=O)c1cccc(NC(=O)[C@@H]2S[C@@](C)(C(F)(F)F)C[C@H]2c2ccc(F)c(F)c2OC)c1 [Compound 241-A, (2R,3S,5R)-3-(3,4-difluoro-2-methoxyphenyl)-5-methyl-N-(3-(N-methylsulfamoyl)phenyl)-5-(trifluoromethyl)tetrahydrothiophene-2-carboxamide] | 95.4% | –
COc1c([C@@H]2C[C@](C)(C(F)(F)F)S[C@H]2C(=O)Nc2ccnc(C(F)F)c2)ccc(F)c1F [Compound 244-A, (2R,3S,5R)-3-(3,4-difluoro-2-methoxyphenyl)-N-(2-(difluoromethyl)pyridin-4-yl)-5-methyl-5-(trifluoromethyl)tetrahydrothiophene-2-carboxamide] | – | 87.8%
COc1c([C@@H]2C[C@](C)(C(F)(F)F)S[C@H]2C(=O)Nc2ccc3nonc3c2)ccc(F)c1F [Compound 248-A, (2R,3S,5R)-N-(benzo[c][1,2,5]oxadiazol-5-yl)-3-(3,4-difluoro-2-methoxyphenyl)-5-methyl-5-(trifluoromethyl)tetrahydrothiophene-2-carboxamide] | – | 72.6%
COc1c([C@@H]2C[C@](C)(C(F)(F)F)S[C@H]2C(=O)Nc2ccc(N)c(S(N)(=O)=O)c2)ccc(F)c1F [Compound 249-A, (2R,3S,5R)-N-(4-amino-3-sulfamoylphenyl)-3-(3,4-difluoro-2-methoxyphenyl)-5-methyl-5-(trifluoromethyl)tetrahydrothiophene-2-carboxamide] | – | 81.6%
C=CC(=O)Nc1cc(NC(=O)[C@@H]2S[C@@](C)(C(F)(F)F)C[C@H]2c2ccc(F)c(F)c2OC)ccn1 [Compound 252-A, (2R,3S,5R)-N-(2-acrylamidopyridin-4-yl)-3-(3,4-difluoro-2-methoxyphenyl)-5-methyl-5-(trifluoromethyl)tetrahydrothiophene-2-carboxamide] | – | 62.7%
CNC(=O)c1cc(NC(=O)[C@@H]2S[C@@](C)(C(F)(F)F)C[C@H]2c2ccc(F)c(F)c2OC)ccn1 [Compound 253-A, 4-((2R,3S,5R)-3-(3,4-difluoro-2-methoxyphenyl)-5-methyl-5-(trifluoromethyl)tetrahydrothiophene-2-carboxamido)-N-methylpicolinamide] | – | 68.6%
COc1c([C@@H]2C[C@](C)(C(F)(F)F)S[C@H]2C(=O)Nc2ccc(F)c(CO)c2)ccc(F)c1F [Compound 254-A, (2R,3S,5R)-3-(3,4-difluoro-2-methoxyphenyl)-N-(4-fluoro-3-(hydroxymethyl)phenyl)-5-methyl-5-(trifluoromethyl)tetrahydrothiophene-2-carboxamide] | – | 76.8%
